Laboratory results as given in PubChem BioAssay AID402 (SGCOxCompounds, 2006).

Biological target: Tyrosine-protein phosphatase non-receptor type 14 (Homo sapiens) (UniProt Q15678)
Test: PTPN14 phosphatase inhibitors, biochemical, human, DiFMUP fluorescence (AID 402)
Settings: recombinant PTPN14, DiFMUP fluorescence phosphatase assay; at 50 µM; hits give high values

Tyrosine-protein phosphatase non-receptor type 14 (Homo sapiens), sequence (Q15678 whole entry, looked up): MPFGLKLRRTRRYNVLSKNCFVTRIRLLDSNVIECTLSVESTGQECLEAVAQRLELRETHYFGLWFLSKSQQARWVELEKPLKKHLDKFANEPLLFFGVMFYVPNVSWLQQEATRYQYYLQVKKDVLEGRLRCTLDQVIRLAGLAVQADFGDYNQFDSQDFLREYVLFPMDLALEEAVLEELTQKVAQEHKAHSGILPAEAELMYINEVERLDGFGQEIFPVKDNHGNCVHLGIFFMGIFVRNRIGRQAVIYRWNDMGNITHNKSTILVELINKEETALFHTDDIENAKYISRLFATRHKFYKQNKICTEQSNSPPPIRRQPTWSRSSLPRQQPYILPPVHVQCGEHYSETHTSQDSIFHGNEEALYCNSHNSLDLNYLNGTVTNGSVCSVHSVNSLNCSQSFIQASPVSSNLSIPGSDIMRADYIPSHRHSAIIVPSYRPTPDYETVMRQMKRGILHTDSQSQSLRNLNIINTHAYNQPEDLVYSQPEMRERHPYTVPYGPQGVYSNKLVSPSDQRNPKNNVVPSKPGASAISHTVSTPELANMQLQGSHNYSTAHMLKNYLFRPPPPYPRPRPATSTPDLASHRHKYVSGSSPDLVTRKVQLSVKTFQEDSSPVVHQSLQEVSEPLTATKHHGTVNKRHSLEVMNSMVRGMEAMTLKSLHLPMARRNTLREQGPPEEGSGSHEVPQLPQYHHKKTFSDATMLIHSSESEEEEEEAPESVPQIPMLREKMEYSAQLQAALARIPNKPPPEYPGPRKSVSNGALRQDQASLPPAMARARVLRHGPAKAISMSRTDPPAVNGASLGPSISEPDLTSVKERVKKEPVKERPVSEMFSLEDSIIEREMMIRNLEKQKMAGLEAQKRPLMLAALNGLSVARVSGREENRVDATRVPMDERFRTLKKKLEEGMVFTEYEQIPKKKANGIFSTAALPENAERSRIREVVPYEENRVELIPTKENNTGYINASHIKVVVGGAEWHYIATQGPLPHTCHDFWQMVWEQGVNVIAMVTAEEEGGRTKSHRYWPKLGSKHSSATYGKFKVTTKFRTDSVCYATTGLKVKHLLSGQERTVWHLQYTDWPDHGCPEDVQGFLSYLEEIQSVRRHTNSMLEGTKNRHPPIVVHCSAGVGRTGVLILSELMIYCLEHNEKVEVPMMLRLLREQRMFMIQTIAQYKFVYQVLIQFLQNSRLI

With `O=C([O-])c1ccccn1.OO.OO.[K+].[K+].[O]=[V]` as the molecule, how does the inhibition read?
The inhibition was 73%.

For `Cn1nc(/C=C/c2ccccc2)nc2c(=O)n(C)c(=O)nc1-2`, which inhibition is on record?
The inhibition was 37%.

Which inhibition does the source give for `CN(N=O)c1ccc(O)c(O)c1` here?
The inhibition was 68%.

Which inhibition does the source give for `O=P(O)(O)OC(CO)CO` here?
The inhibition was 27%.

For `OO.OO.[K+].[O]=[V].c1ccc(-c2ccccn2)nc1`, which inhibition is on record?
The inhibition was 72%.

How did the inhibition turn out when `OO.OO.[K+].[O]=[V].c1cnc2c(c1)ccc1cccnc12` was run?
Its inhibition is 49%.

Which inhibition does the source give for `c1ccc([C@H]2CN3CCSC3=N2)cc1` here?
The inhibition was 27%.

How did the inhibition turn out when `Cn1c(=O)[nH]c2c(c1=O)[n+](=O)c(/C=C/c1ccccc1)nn2C` was run?
The inhibition was 28%.

How did the inhibition turn out when `O=P(O)(O)Oc1cccc2ccccc12` was run?
Its inhibition is 26%.

How did the inhibition turn out when `CCn1nc(/C=C/c2ccccc2)[n+](=O)c2c(=O)n(C)c(=O)[nH]c21` was run?
The inhibition was 33%.

`O=C(O)c1ccc([O-])cn1.OO.OO.[K+].[K+].[O]=[V]` was tested. Which inhibition did it give?
Its inhibition is 70%.

Which inhibition does the source give for `CCn1nc(-c2ccccc2)nc2c(=O)n(C)c(=O)nc1-2` here?
Its inhibition is 25.5%.

For `CCn1nc(-c2ccc(Cl)cc2)nc2c(=O)n(C)c(=O)nc1-2`, which inhibition is on record?
Its inhibition is 30.5%.

`Cn1nc(-c2ccccc2)nc2c(=O)n(C)c(=O)nc1-2` was tested. Which inhibition did it give?
Its inhibition is 39.5%.

With `CCn1nc(/C=C/c2ccccc2)nc2c(=O)n(C)c(=O)nc1-2` as the molecule, how does the inhibition read?
Its inhibition is 24%.

For `O=C(O)c1ccc(O)cn1.OO.[O]=[V]`, which inhibition is on record?
Its inhibition is 62.5%.

How did the inhibition turn out when `[NH-]CO.[NH-]CO.[NH-]CO.[NH-]CO.[O]=[V][O][V]=[O]` was run?
Its inhibition is 28.5%.
